ChEMBL document CHEMBL1124277, “Leukotriene receptor antagonists. 4. Synthesis and leukotriene D4/E4 receptor antagonist activity of 4-(alkyl)acetophenone derivatives” (J Med Chem, 1988)

Assays:
[1] = molecular target: T1, Cysteinyl leukotriene receptor 1 (Cavia porcellus) (UniProt Q2NNR5); assay: Dissociation constant for leukotriene antagonist (compound) on LTE4 receptor in guinea pig ileum was determined; type: functional, tissue-based
T1 sequence (whole entry): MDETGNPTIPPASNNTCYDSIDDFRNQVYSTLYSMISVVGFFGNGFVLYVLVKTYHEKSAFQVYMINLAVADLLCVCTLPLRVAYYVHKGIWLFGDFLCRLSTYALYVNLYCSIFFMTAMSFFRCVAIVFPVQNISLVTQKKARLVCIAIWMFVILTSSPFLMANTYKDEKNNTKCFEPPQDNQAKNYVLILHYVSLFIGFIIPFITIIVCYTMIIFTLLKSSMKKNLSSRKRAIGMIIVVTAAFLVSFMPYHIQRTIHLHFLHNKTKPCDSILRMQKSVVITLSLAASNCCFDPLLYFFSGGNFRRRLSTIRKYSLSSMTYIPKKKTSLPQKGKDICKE

[2] = molecular target: T1, Cysteinyl leukotriene receptor 1 (Cavia porcellus); assay: Dissociation constant for leukotriene antagonist (compound) on Cysteinyl leukotriene D4 receptor in guinea pig ileum was determined; type: functional, tissue-based

SMILES	pKB [1]	pKB [2]
CCCc1c(CCCCCc2nnn[nH]2)ccc(C(C)=O)c1O	7.5	7.08
CCCc1c(OCCCCc2nnn[nH]2)ccc(C(C)=O)c1O	7.21	6.93
CCCc1c(OCCCc2nnn[nH]2)ccc(C(C)=O)c1O	5.64	5.47
CCCc1c(CCCCc2nnn[nH]2)ccc(C(C)=O)c1O	6.67	6.25
